In patent US20250049776A1, “AUTOPHAGY INDUCING COMPOUNDS AND USES THEREOF, IN PARTICULAR FOR A SYSTEMIC TREATMENT OF DISEASES AND CONDITIONS” (Samsara Therapeutics Inc., priority 2021, published 2025):
Counter-ions that a name gives are not always drawn. Like-named read-outs stand apart in the source and are kept apart here.

Tested on: Human osteosarcoma U20S cells
Test: Assay to measure lysosome and autolysosome formation (acidic vesicle formation, LysoView/LysoTracker staining)
Format: cell-based
Details: for activation at 0.8 µM: Homo sapiens; for activation at 0.8 µM / Activity (percentage increase in acidic vesicle formation), Table 2b More preferred compounds: U2OS cells, concentration of 0.8 μM; for acidic vesicle formation relative to a DMSO-treated control / increase in acidic vesicle formation: U20S cells; for acidic vesicle formation relative to a DMSO-treated control: concentration of 10 μM, 24 hours; for increase in acidic vesicle formation: relative to DMSO-treated control (10 μM)
Procedure: Lysosomes play a fundamental role in the autophagic pathway by fusing with autophagosomes and creating ‘autolysosomes’ in order to digest their contents. Stimulation of lysosome and autolysosome formation by a compound is indicative of a stimulation of autophagy. The ability of compounds to stimulate lysosome and autolysosome formation, and thus autophagy, in live cells was assessed via fluorescent microscopy using various fluorescent stains for labelling and tracking acidic organelles (including lysosomes and autolysosomes) such as: LysoView™ 650 (70059 and 70059-T, Biotium), LysoViewTM633 (70058 and 70058-T, Biotium) and LysoTracker™ Deep Red (L12492, ThermoFisher Scientific). The cellular phenotype was quantitatively assessed for the induction of acidic vesicle formation and compared to a non-treated control, thus providing a measure of the ability of the compound under investigation to stimulate autophagy.
Representative procedure using LysoView™633 dye or LysoTracker™ Deep Red dye: Human osteosarcoma U20S cells (40,000 cells/well) were seeded in a 24 well glass bottom plate (Sensoplate, Greiner Bio-One) and were incubated overnight in a humidified atmosphere at 37° C. and 5% CO2. Cells were grown in DMEM (Gibco) supplemented with 10% Fetal Bovine Serum (FBS) and 100 units/ml penicillin and 100 μg/ml streptomycin (Invitrogen). After the attachment period, cells were treated with different compounds of interest (at various concentrations in DMSO) or DMSO (non-treated control) in cell culture medium and were incubated for 24 hours. Compound-containing medium was removed and cells were incubated with pre-warmed cell culture medium containing 1× LysoView™ 633 (70058 and 70058-T, Biotium) or 50 nM LysoTracker™ Deep Red (L12492, ThermoFisher Scientific) for 45 minutes at 37° C. Finally, cell nuclei were stained for 10 minutes using Hoechst 33342 (1 μg/mL) and then the medium was replaced with fresh medium. The 24 well plate was then fitted into a heated stage on the microscope and cells maintained at 37° C. Images were captured using appropriate filter set for Cy5 and DAPI detection with the EVOS M7000 Microscope (ThermoFisher Scientific). The cellular phenotype was visually assessed for the induction of acidic vesicle formation relative to the non-treated control; multiple images were acquired and analyzed using ImageJ or Cell Profiler.

[1] = read-out: Activity (percentage increase in acidic vesicle formation over the DMSO-treated control), Table 2
[2] = read-out: Activity (percentage increase in acidic vesicle formation), Table 2a Preferred compounds

## O=C(NCC1CCNCC1)c1cc(-c2cnn(-c3ccccc3)c2)cs1 [Compound 111, 4-(1-phenyl-1H-pyrazol-4-yl)-N-[(piperidin-4-yl)methyl]thiophene-2-carboxamide]
[1]
  activation at 0.8 µM: 30 to 50%

## CCCN(C(=O)c1csc(-c2cnc(-c3ccccc3)o2)n1)C1CCNC1 (centres unmarked) [Compound 116, 2-(2-phenyl-1,3-oxazol-5-yl)-N-propyl-]
[1]
  activation at 0.8 µM: 50 to 100%
[2]
  activation at 0.8 µM: 50 to 100%

## CCCN(C(=O)c1ccc(-c2cnn(-c3ccccc3)c2)[nH]1)C1CCNC1 (centres unmarked) [Compound 120, 5-(1-phenyl-1H-pyrazol-4-yl)-N-propyl-N-(pyrrolidin-3-yl)-1H-pyrrole-2-carboxamide]
[1]
  activation at 0.8 µM: 50 to 100%
[2]
  activation at 0.8 µM: 50 to 100%

## CCCN(C(=O)c1csc(-c2ccc(-c3ccccc3)s2)n1)C1CCNC1 (centres unmarked) [Compound 122, 2-(5-phenylthiophen-2-yl)-N-propyl-N-(pyrrolidin-3-yl)-1,3-thiazole-4-carboxamide]
[1]
  activation at 0.8 µM: > 100%
[2]
  activation at 0.8 µM: 50 to 100%
  Activity (percentage increase in acidic vesicle formation), Table 2b More preferred compounds: ++++ (a percentage increase in acidic vesicle of greater than 100% over the DMSO-treated control)

## CCCN(C(=O)c1cc(-c2cnn(-c3ccccc3)c2)c[nH]1)C1CCNC1 (centres unmarked) [Compound 123, 4-(1-phenyl-1H-pyrazol-4-yl)-N-propyl-N-(pyrrolidin-3-yl)-1H-pyrrole-2-carboxamide]
[1]
  activation at 0.8 µM: > 100%
[2]
  activation at 0.8 µM: 50 to 100%
  Activity (percentage increase in acidic vesicle formation), Table 2b More preferred compounds: ++++ (a percentage increase in acidic vesicle of greater than 100% over the DMSO-treated control)

## NC1CN(C(=O)c2csc(-c3cnn(-c4ccccc4)c3)n2)C1 [Compound 124, 1-[2-(1-phenyl-1H-pyrazol-4-yl)-1,3-thiazole-4-carbonyl]azetidin-3-amine]
[1]
  activation at 0.8 µM: 50 to 100%
[2]
  activation at 0.8 µM: 50 to 100%

## CCCN(C(=O)c1csc(-c2cnn(-c3ccccc3)c2)c1)C1CCNC1 (centres unmarked) [Compound 130, 5-(1-phenyl-1H-pyrazol-4-yl)-N-propyl-N-(pyrrolidin-3-yl)thiophene-3-carboxamide]
[1]
  activation at 0.8 µM: 10 to 30%

## CCCN(C(=O)c1ccc(-c2cnn(-c3ccccc3)c2)o1)C1CCNC1 (centres unmarked) [Compound 140, 5-(1-phenyl-1H-pyrazol-4-yl)-N-propyl-N-(pyrrolidin-3-yl)furan-2-carboxamide]
[1]
  activation at 0.8 µM: 10 to 30%

## CCCN(C(=O)c1cc(-c2cnn(-c3ccccc3)c2)cs1)C1CCNC1 (centres unmarked) [Compound 141, 4-(1-phenyl-1H-pyrazol-4-yl)-N-propyl-N-(pyrrolidin-3-yl)thiophene-2-carboxamide]
[1]
  activation at 0.8 µM: 50 to 100%
[2]
  activation at 0.8 µM: 50 to 100%

## N[C@H]1CCCN(C(=O)c2csc(-c3cnn(-c4ccccc4)c3)n2)C1 [Compound 142, (3S)-1-[2-(1-phenyl-1H-pyrazol-4-yl)-1,3-thiazole-4-carbonyl]piperidin-3-amine]
[1]
  activation at 0.8 µM: 10 to 30%

## N[C@@H]1CCCN(C(=O)c2csc(-c3cnn(-c4ccccc4)c3)n2)C1 [Compound 143, (3R)-1-[2-(1-phenyl-1H-pyrazol-4-yl)-1,3-thiazole-4-carbonyl]piperidin-3-amine]
[1]
  activation at 0.8 µM: 10 to 30%

## CC1CCCN(C(=O)c2csc(-c3cnn(-c4ccccc4)c3)n2)C1CN (centres unmarked) [Compound 153, 1-{3-methyl-1-[2-(1-phenyl-1H-pyrazol-4-yl)-1,3-thiazole-4-carbonyl]piperidin-2-yl}methanamine]
[1]
  activation at 0.8 µM: 10 to 30%

## NCCCNC(=O)c1csc(-c2cnn(-c3ccccc3)c2)n1 [Compound 159, N-(3-aminopropyl)-2-(1-phenyl-1H-pyrazol-4-yl)-1,3-thiazole-4-carboxamide]
[1]
  activation at 0.8 µM: 30 to 50%

## NCCNC(=O)c1csc(-c2cnn(-c3ccccc3)c2)n1 [Compound 162, N-(2-aminoethyl)-2-(1-phenyl-1H-pyrazol-4-yl)-1,3-thiazole-4-carboxamide]
[1]
  activation at 0.8 µM: 10 to 30%

## NC1CCCN(C(=O)c2csc(-c3cnn(-c4ccccc4)c3)n2)C1 (centres unmarked) [Compound 167, 1-[2-(1-phenyl-1H-pyrazol-4-yl)-1,3-thiazole-4-carbonyl]piperidin-3-amine]
[1]
  activation at 0.8 µM: 10 to 30%

## CCCN(C(=O)c1csc(-c2cnn(-c3ccccc3)c2)n1)[C@H]1CCNC1 [Compound 170, (S)-2-(1-phenyl-1H-pyrazol-4-yl)-N-propyl-N-(pyrrolidin-3-yl)thiazole-4-carboxamide hydrochloride]
[1]
  activation at 0.8 µM: 10 to 30%

## O=C(NCC1CCNCC1)c1csc(-c2cnn(-c3ccccc3)c2)n1 [Compound 177, 2-(1-phenyl-1H-pyrazol-4-yl)-N-[(piperidin-4-yl)methyl]-1,3-thiazole-4-carboxamide]
[1]
  activation at 0.8 µM: 10 to 30%

## O=C(NCC1CCNC1)c1csc(-c2cnn(-c3ccccc3)c2)n1 (centres unmarked) [Compound 179, 2-(1-phenyl-1H-pyrazol-4-yl)-N-[(pyrrolidin-3-yl)methyl]-1,3-thiazole-4-carboxamide]
[1]
  activation at 0.8 µM: 30 to 50%

## O=C(NC1CNC1)c1csc(-c2cnn(-c3ccccc3)c2)n1 [Compound 180, N-(azetidin-3-yl)-2-(1-phenyl-1H-pyrazol-4-yl)-1,3-thiazole-4-carboxamide]
[1]
  activation at 0.8 µM: 30 to 50%

## CC(C)N(C(=O)c1csc(-c2cnn(-c3ccccn3)c2)n1)C1CCNCC1 [Compound 307, N-(piperidin-4-yl)-N-(propan-2-yl)-2-[1-(pyridin-2-yl)-1H-pyrazol-4-yl]-1,3-thiazole-4-carboxamide]
[1]
  activation at 0.8 µM: 50 to 100%

## CC(C)N(C(=O)c1csc(-c2cnn(-c3ccccc3)c2)n1)[C@@H]1CCNC1 [Compound 312, 2-(1-phenyl-1H-pyrazol-4-yl)-N-(propan-2-yl)-N-[(3R)-pyrrolidin-3-yl]-1,3-thiazole-4-carboxamide]
[1]
  activation at 0.8 µM: 50 to 100%

## CC(C)N(C(=O)c1csc(-c2cnn(-c3ccccc3)c2)n1)C1C[C@H]2C[C@@H]1CN2 (stereo partly drawn) [Compound 316, N-[(1R,4R)-2-azabicyclo[2.2.1]heptan-5-yl]-2-(1-phenyl-1H-pyrazol-4-yl)-N-(propan-2-yl)-1,3-thiazole-4-carboxamide]
[1]
  activation at 0.8 µM: 30 to 50%

## CC(C)N(C(=O)c1csc(-c2cnn(-c3ccccc3)c2)n1)C1C2CNCC1C2 (centres unmarked) [Compound 317, N-{3-azabicyclo[3.1.1]heptan-6-yl}-2-(1-phenyl-1H-pyrazol-4-yl)-N-(propan-2-yl)-1,3-thiazole-4-carboxamide]
  acidic vesicle formation relative to a DMSO-treated control: only a slight increase
  increase in acidic vesicle formation: only a slight increase

## CC(C)N(C(=O)c1csc(-c2cnn(-c3ccccc3)c2)n1)[C@H]1[C@@H]2CNC[C@@H]21 [Compound 318, N-[(1R,5S,6S)-3-azabicyclo[3.1.0]hexan-6-yl]-2-(1-phenyl-1H-pyrazol-4-yl)-N-(propan-2-yl)-1,3-thiazole-4-carboxamide]
[1]
  activation at 0.8 µM: > 100%

## CC(C)N(C(=O)c1csc(-c2cnn(-c3cccnc3)c2)n1)C1CCNCC1 [Compound 321, N-(piperidin-4-yl)-N-(propan-2-yl)-2-[1-(pyridin-3-yl)-1H-pyrazol-4-yl]-1,3-thiazole-4-carboxamide]
[1]
  activation at 0.8 µM: 30 to 50%
  increase in acidic vesicle formation: only a slight increase

## CC(C)N(C(=O)c1csc(-c2cnn(-c3ccncc3)c2)n1)C1CCNCC1 [Compound 322, N-(piperidin-4-yl)-N-(propan-2-yl)-2-[1-(pyridin-4-yl)-1H-pyrazol-4-yl]-1,3-thiazole-4-carboxamide]
  acidic vesicle formation relative to a DMSO-treated control: only a slight increase
  increase in acidic vesicle formation: only a slight increase

## CC(C)N(C(=O)c1csc(-c2cnn(-c3cccnn3)c2)n1)C1CCNCC1 [Compound 323, N-(piperidin-4-yl)-N-(propan-2-yl)-2-[1-(pyridazin-3-yl)-1H-pyrazol-4-yl]-1,3-thiazole-4-carboxamide]
[1]
  activation at 0.8 µM: 30 to 50%
  increase in acidic vesicle formation: only a slight increase

## O=C(c1csc(-c2cnn(-c3ccccc3)c2)n1)N1C[C@H]2C[C@@H]1CN2 [Compound 326, (1R,4R)-2-[2-(1-phenyl-1H-pyrazol-4-yl)-1,3-thiazole-4-carbonyl]-2,5-diazabicyclo[2.2.1]heptane]
[1]
  activation at 0.8 µM: 50 to 100%

## O=C(NC1C[C@@H]2C[C@H]1CN2)c1csc(-c2cnn(-c3ccccc3)c2)n1 (stereo partly drawn) [Compound 327, N-[(1S,4S)-2-azabicyclo[2.2.1]heptan-5-yl]-2-(1-phenyl-1H-pyrazol-4-yl)-1,3-thiazole-4-carboxamide]
[1]
  activation at 0.8 µM: 30 to 50%
